Laboratory results as given in patent publication US20060199821A1, “Heterocyclic amides and sulfonamides” (Scios, Inc., priority 2003, published 2006).

The compounds below were run against p38-α kinase (Homo sapiens, UniProt Q16539) (assay: Human whole blood assay for p38 kinase inhibition, diluted (1:10) whole blood, LPS-induced TNF-α by ELISA). Settings: LPS-stimulated TNF-α production.
Type: cell-based
Protocol: For each of the assay procedures described below, the TNF-α production correlates to the activity of p38-α kinase.
A. Human Whole Blood Assay for p38 Kinase Inhibition
Venous blood is collected from healthy male volunteers into a heparinized syringe and is used within 2 hours of collection. Test compounds are dissolved in 100% DMSO and 1 μl aliquots of drug concentrations ranging from 0 to 1 mM are dispensed into quadruplicate wells of a 24-well microtiter plate (Nunclon Delta SI, Applied Scientific, So. San Francisco, Calif.). Whole blood is added at a volume of 1 ml/well and the mixture is incubated for 15 minutes with constant shaking (Titer Plate Shaker, Lab-Line Instruments, Inc., Melrose Park, Ill.) at a humidified atmosphere of 5% CO2 at 37° C. Whole blood is cultured either undiluted or at a final dilution of 1:10 with RPMI 1640 (Gibco 31800+NaHCO3, Life Technologies, Rockville, Md. and Scios, Inc., Sunnyvale, Calif.). At the end of the incubation period, 10 μl of LPS (E. coli 0111:B4, Sigma Chemical Co., St. Louis, Mo.) is added to each well to a final concentration of 1 or 0.1 μg/ml for undiluted or 1:10 diluted whole blood, respectively. The incubation is continued for an additional 2 hours. The reaction is stopped by placing the microtiter plates in an ice bath and plasma or cell-free supernates are collected by centrifugation at 3000 rpm for 10 minutes at 4° C. The plasma samples are stored at −80° C. until assayed for TNF-α levels by ELISA, following the directions supplied by Quantikine Human TNF-α assay kit (R&D Systems, Minneapolis, Minn.).
IC50 values are calculated using the concentration of inhibitor that causes a 50% decrease as compared to a control. IC50 values can be determined with curve-fitting plots available with common software packages. Approximate IC50 values can be calculated using formula: IC50 (app)=A×i/(1−A)
where A=fractional activity and i=total inhibitor concentration.
IC50 values are calculated using the concentration of inhibitor that causes a 50% decrease as compared to a control.

p38-α kinase, sequence (Q16539 whole entry): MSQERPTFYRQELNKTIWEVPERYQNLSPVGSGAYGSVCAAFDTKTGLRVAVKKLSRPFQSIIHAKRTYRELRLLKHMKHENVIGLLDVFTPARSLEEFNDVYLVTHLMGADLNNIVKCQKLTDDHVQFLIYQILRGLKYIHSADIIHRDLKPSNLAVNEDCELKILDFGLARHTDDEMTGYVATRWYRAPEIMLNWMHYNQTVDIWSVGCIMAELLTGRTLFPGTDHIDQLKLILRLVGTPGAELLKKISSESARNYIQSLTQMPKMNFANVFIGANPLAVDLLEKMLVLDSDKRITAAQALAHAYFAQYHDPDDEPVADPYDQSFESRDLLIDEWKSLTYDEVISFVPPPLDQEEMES

Which IC50 does the source give for `CCN(C(=O)c1ccc2ccccc2c1)c1ccnc(N[C@@H](C)c2ccccc2)n1` [Example 20, Naphthalene-2-carboxylic acid ethyl-[2-(1S-phenyl-ethylamino)-pyrimidin-4-yl]-amide] here?
Its IC50 is less than 1000 nM.

For `C[C@H](Nc1nccc(N(Cc2ccc(F)cc2)C(=O)c2ccc3ccccc3c2)n1)c1ccccc1` [Example 70], which IC50 is on record?
The IC50 was less than 1000 nM.

For `CC(C)N(C(=O)c1ccc2ccccc2c1)c1ccnc(N[C@@H](C)c2ccccc2)n1` [Example 73], which IC50 is on record?
Its IC50 is less than 1000 nM.

`COCCN(C(=O)c1ccc2ccccc2c1)c1ccnc(N[C@@H](C)c2ccccc2)n1` [Example 76] was tested. Which IC50 did it give?
Its IC50 is less than 1000 nM.

For `C[C@H](Nc1nccc(N(C)C(=O)c2ccc3ccccc3c2)n1)c1ccccc1` [Example 77], which IC50 is on record?
Its IC50 is less than 1000 nM.

With `C[C@H](Nc1nccc(N(Cc2cccnc2)C(=O)c2ccc3ccccc3c2)n1)c1ccccc1` [Example 83] as the compound, how does the IC50 read?
Its IC50 is less than 1000 nM.

With `CCN(C(=O)c1ccc2c(c1)CCO2)c1ccnc(N[C@@H](C)c2ccccc2)n1` [Example 84] as the compound, how does the IC50 read?
Its IC50 is less than 1000 nM.
